According to patent US11807644B2 (PMV Pharmaceuticals, Inc., priority 2020, dated 2023):

Each compound was assayed against T1, recombinant His-tag Y220C p53 DBD protein (Homo sapiens, UniProt P04637, Y220C) (assay: In vitro DNA binding activity assay (TR-FRET): binding of His-tag Y220C p53 DBD to biotin-labeled consensus DNA). Details: SC150 = concentration to increase DNA binding by […], His-tag Y220C p53 DBD, biotin-labeled consensus DNA.
T1 construct: recombinant His-tag Y220C p53 DBD protein (amino acids #˜94-312)
Type: biochemical

Structure (SMILES) | Y220C SC150 (μM)
CC(C)(C)n1cc(C(=O)NCc2nc(-c3cc4c(N[C@@H]5CCCC[C@@H]5F)cccc4n3CC(F)(F)F)no2)cn1 [Compound 331B, 1-tert-butyl-N-{[3-(4-{[(1R,2S)-2-fluorocyclohexyl]amino}-1-(2,2,2-trifluoroethyl)-1H-indol-2-yl)-1,2,4-oxadiazol-5-yl]methyl}-1H-pyrazole-4-carboxamide] | * (* = 0 μM ≤ SC150 < 0.1 μM)
CC(C)(C)n1ccc(C(=O)NCc2nc(-c3cc4c(NC5CCn6nccc6C5)cccc4n3CC(F)(F)F)no2)c1 (stereo not shown) [Compound 332B, 1-tert-butyl-N-({3-[4-({4H,5H,6H,7H-pyrazolo[1,5-a]pyridin-5-yl}amino)-1-(2,2,2-trifluoroethyl)-1H-indol-2-yl]-1,2,4-oxadiazol-5-yl}methyl)-1H-pyrrole-3-carboxamide] | * (* = 0 μM ≤ SC150 < 0.1 μM)
CCN1CC[C@@H](Nc2cccc3c2cc(-c2noc(CNC(=O)c4ccn(C5CCOCC5)c4)n2)n3CC(F)(F)F)[C@@H](F)C1 [Compound 333B, N-{[3-(4-{[(3S,4R)-1-ethyl-3-fluoropiperidin-4-yl]amino}-1-(2,2,2-trifluoroethyl)-1H-indol-2-yl)-1,2,4-oxadiazol-5-yl]methyl}-1-(oxan-4-yl)-1H-pyrrole-3-carboxamide] | * (* = 0 μM ≤ SC150 < 0.1 μM)
CCN1CC[C@@H](Nc2cccc3c2cc(-c2noc(CNC(=O)c4cnn(C5CCOCC5)c4)n2)n3CC(F)(F)F)[C@@H](F)C1 [Compound 334B, N-{[3-(4-{[(3S,4R)-1-ethyl-3-fluoropiperidin-4-yl]amino)-1-(2,2,2-trifluoroethyl)-1H-indol-2-yl)-1,2,4-oxadiazol-5-yl]methyl}-1-(oxan-4-yl)-1H-pyrazole-4-carboxamide] | * (* = 0 μM ≤ SC150 < 0.1 μM)
CN1CC[C@@H](Nc2cccc3c2cc(-c2noc(CNC(=O)c4ccn(C5CCOCC5)c4)n2)n3CC(F)(F)F)[C@@H](F)C1 [Compound 335B, N-{[3-(4-{[(3S,4R)-3-fluoro-1-methylpiperidin-4-yl]amino}-1-(2,2,2-trifluoroethyl)-1H-indol-2-yl)-1,2,4-oxadiazol-5-yl]methyl}-1-(oxan-4-yl)-1H-pyrrole-3-carboxamide] | * (* = 0 μM ≤ SC150 < 0.1 μM)
COCCN1CC[C@@H](Nc2cccc3c2cc(-c2noc(CNC(=O)c4ccn(C(C)(C)C)c4)n2)n3CC(F)(F)F)[C@@H](F)C1 [Compound 337B, 1-tert-butyl-N-{[3-(4-{[(3S,4R)-3-fluoro-1-(2-methoxyethyl)piperidin-4-yl]amino}-1-(2,2,2-trifluoroethyl)-1H-indol-2-yl)-1,2,4-oxadiazol-5-yl]methyl}-1H-pyrrole-3-carboxamide] | * (* = 0 μM ≤ SC150 < 0.1 μM)
COCCN1CC[C@@H](Nc2cccc3c2cc(-c2noc(CNC(=O)c4cnn(C(C)(C)C)c4)n2)n3CC(F)(F)F)[C@@H](F)C1 [Compound 338B, 1-tert-butyl-N-{[3-(4-{[(3S,4R)-3-fluoro-1-(2-methoxyethyl)piperidin-4-yl]amino}-1-(2,2,2-trifluoroethyl)-1H-indol-2-yl)-1,2,4-oxadiazol-5-yl]methyl}-1H-pyrazole-4-carboxamide] | * (* = 0 μM ≤ SC150 < 0.1 μM)
CN1CC[C@@H](Nc2cccc3c2cc(-c2noc(CNC(=O)c4cnn(C5CCC(F)C5)c4)n2)n3CC(F)(F)F)[C@@H](F)C1 (stereo partly drawn) [Compound 339B, N-{[3-(4-{[(3S,4R)-3-fluoro-1-methylpiperidin-4-yl]amino}-1-(2,2,2-trifluoroethyl)-1H-indol-2-yl)-1,2,4-oxadiazol-5-yl]methyl}-1-(3-fluorocyclopentyl)-1H-pyrazole-4-carboxamide] | * (* = 0 μM ≤ SC150 < 0.1 μM)
CN1CC[C@@H](Nc2cccc3c2cc(-c2noc(CNC(=O)c4cn(C(C)(C)CF)cn4)n2)n3CC(F)(F)F)[C@@H](F)C1 [Compound 342B, N-{[3-(4-{[(3S,4R)-3-fluoro-1-methylpiperidin-4-yl]amino}-1-(2,2,2-trifluoroethyl)-1H-indol-2-yl)-1,2,4-oxadiazol-5-yl]methyl}-1-(1-fluoro-2-methylpropan-2-yl)-1H-imidazole-4-carboxamide] | * (* = 0 μM ≤ SC150 < 0.1 μM)
CC(C)(C)n1ccc(C(=O)NCc2nc(-c3cc4c(N[C@H]5CC[C@@H](F)CC5)cccc4n3CC(F)(F)F)no2)c1 [Compound 343B, 1-tert-butyl-N-{[3-(4-{[(1s,4s)-4-fluorocyclohexyl]amino}-1-(2,2,2-trifluoroethyl)-1H-indol-2-yl)-1,2,4-oxadiazol-5-yl]methyl}-1H-pyrrole-3-carboxamide] | * (* = 0 μM ≤ SC150 < 0.1 μM)
CN1CC[C@@H](Nc2cccc3c2cc(-c2noc(CNC(=O)c4cnn(C5CCC(F)(F)C5)c4)n2)n3CC(F)(F)F)[C@@H](F)C1 (stereo partly drawn) [Compound 344B, 1-(3,3-difluorocyclopentyl)-N-{[3-(4-{1[(3S,4R)-3-fluoro-1-methylpiperidin-4-yl]amino}-1-(2,2,2-trifluoroethyl)-1H-indol-2-yl)-1,2,4-oxadiazol-5-yl]methyl}-1H-pyrazole-4-carboxamide] | * (* = 0 μM ≤ SC150 < 0.1 μM)
CN1CC[C@@H](Nc2cccc3c2cc(-c2noc(CNC(=O)c4ccn(C5CCC(F)C5)c4)n2)n3CC(F)(F)F)[C@@H](F)C1 (stereo partly drawn) [Compound 345B, N-{[3-(4-{[(3S,4R)-3-fluoro-1-methylpiperidin-4-yl]amino}-1-(2,2,2-trifluoroethyl)-1H-indol-2-yl)-1,2,4-oxadiazol-5-yl]methyl}-1-(3-fluorocyclopentyl)-1H-pyrrole-3-carboxamide] | * (* = 0 μM ≤ SC150 < 0.1 μM)
CCN1CC[C@@H](Nc2cccc3c2cc(-c2noc(CNC(=O)c4ccn(C5CCC(F)(F)C5)c4)n2)n3CC(F)(F)F)[C@@H](F)C1 (stereo partly drawn) [Compound 346B, 1-(3,3-difluorocyclopentyl)-N-{[3-(4-{[(3S,4R)-1-ethyl-3-fluoropiperidin-4-yl]amino}-1-(2,2,2-trifluoroethyl)-1H-indol-2-yl)-1,2,4-oxadiazol-5-yl]methyl}-1H-pyrrole-3-carboxamide] | * (* = 0 μM ≤ SC150 < 0.1 μM)
CN1CC[C@@H](Nc2cccc3c2cc(-c2noc(CNC(=O)c4ccn(C5CCC(F)(F)C5)c4)n2)n3CC(F)(F)F)[C@@H](F)C1 (stereo partly drawn) [Compound 347B, 1-(3,3-difluorocyclopentyl)-N-{[3-(4-{[(3S,4R)-3-fluoro-1-methylpiperidin-4-yl]amino}-1-(2,2,2-trifluoroethyl)-1H-indol-2-yl)-1,2,4-oxadiazol-5-yl]methyl)-1H-pyrrole-3-carboxamide] | * (* = 0 μM ≤ SC150 < 0.1 μM)
CN1CCC(n2cc(C(=O)NCc3nc(-c4cc5c(N[C@@H]6CCN(C)C[C@@H]6F)cccc5n4CC(F)(F)F)no3)cn2)C1 (stereo partly drawn) [Compound 349B, N-{[3-(4-{1[(3S,4R)-3-fluoro-1-methylpiperidin-4-yl]amino}-1-(2,2,2-trifluoroethyl)-1H-indol-2-yl)-1,2,4-oxadiazol-5-yl]methyl}-1-(1-methylpyrrolidin-3-yl)-1H-pyrazole-4-carboxamide] | * (* = 0 μM ≤ SC150 < 0.1 μM)
CN1CCC(n2cc(C(=O)NCc3nc(-c4cc5c(N[C@@H]6CCN(C)C[C@@H]6F)cccc5n4CC(F)(F)F)no3)cn2)CC1 [Compound 350B, N-{[3-(4-{1[(3S,4R)-3-fluoro-1-methylpiperidin-4-yl]amino}-1-(2,2,2-trifluoroethyl)-1H-indol-2-yl)-1,2,4-oxadiazol-5-yl]methyl}-1-(1-methylpiperidin-4-yl)-1H-pyrazole-4-carboxamide] | * (* = 0 μM ≤ SC150 < 0.1 μM)
